Tests used:
PKN3-T718 = test: Activation loop (T718) phosphorylation of Y27632-primed PKN3 after kinase inhibitor treatment (Western blot); format: cell-based, human; conditions: WT and KD PKN3, doxycycline 1 μg/ml 5 hours, primed with 10 μM Y27632, inhibitor 7 hours; FIGS. 4 and 5
Text: (§1) The full-length cDNA of human PKN3 (WT or wt) was amplified by PCR and cloned into a GST-fusion expression vector under the control in a doxycycline (Dox)-inducible promoter. A kinase dead (KD or kd) version of PKN3, which comprises a K588R substitution, was also cloned into the same vector using the same strategy. The proteins were expressed in HEK293T cells transfected with the PKN3 WT and KD constructs.
(§2) For protein extraction, cells were washed twice with cold phosphate-buffered saline (PBS) and lysed at 4° C. in lysis buffer containing 20 mM Tris (pH 7.5), 137 mM NaCl, 15% (vol/vol) glycerol, 1% (vol/vol) Nonidet P-40 (NP-40), 2 mM phenylmethylsulfonyl fluoride, […] of aprotinin per ml, […] leupeptin, 2 mM benzamidine, 1 mM sodium vanadate, 25 mM β-glycerolphosphate, 50 mM NaF, and 10 mM Na-pyrophosphate. Lysates were cleared by centrifugation at 14,000×g for 5 min, and aliquots of the lysates were analyzed for protein expression and enzyme activity (see below). Samples were separated by sodium dodecyl sulfate-polyacrylamide gel electrophoresis (SDS-PAGE) and transferred to nitrocellulose filters (Schleicher & Schuell). […] Bound antibody was detected with anti-mouse-, anti-goat, or anti-rabbit-conjugated alkaline phosphatase (Santa Cruz Biotechnology) in TBST, washed, and developed with nitroblue tetrazolium and 5-bromo-4-chloro-3-indolylphosphate (Promega). […]

PKN1 = test: Phosphorylated PKN1 (Western blot); format: cell-based; conditions: PKN3-transfected cells, inhibitor 7 hours; FIGS. 4 and 5, panels C
Procedure: (§3) For protein extraction, cells were washed twice with cold phosphate-buffered saline (PBS) and lysed at 4° C. in lysis buffer containing 20 mM Tris (pH 7.5), 137 mM NaCl, 15% (vol/vol) glycerol, 1% (vol/vol) Nonidet P-40 (NP-40), 2 mM phenylmethylsulfonyl fluoride, […] of aprotinin per ml, […] leupeptin, 2 mM benzamidine, 1 mM sodium vanadate, 25 mM β-glycerolphosphate, 50 mM NaF, and 10 mM Na-pyrophosphate. Lysates were cleared by centrifugation at 14,000×g for 5 min, and aliquots of the lysates were analyzed for protein expression and enzyme activity (see below). Samples were separated by sodium dodecyl sulfate-polyacrylamide gel electrophoresis (SDS-PAGE) and transferred to nitrocellulose filters (Schleicher & Schuell). Filters were blocked in TBST buffer (10 mM Tris-HCl [pH 7.5], 150 mM NaCl, 0.05% [vol/vol] Tween 20, 0.5% [wt/vol] sodium azide) containing 5% (wt/vol) dried milk. The respective antibodies were added in TBST at appropriate dilutions. Bound antibody was detected with anti-mouse-, anti-goat, or anti-rabbit-conjugated alkaline phosphatase (Santa Cruz Biotechnology) in TBST, washed, and developed with nitroblue tetrazolium and 5-bromo-4-chloro-3-indolylphosphate (Promega). Alternatively, horseradish peroxidase-conjugated secondary antibodies were used and developed by enhanced chemiluminescence (Amersham). […]

PKN3-T860 = test: Turn motif (T860) phosphorylation of Y27632-primed PKN3 after kinase inhibitor treatment (Western blot); format: cell-based, human; conditions: WT and KD PKN3, doxycycline 1 μg/ml 5 hours, primed with 10 μM Y27632, inhibitor 7 hours; FIGS. 4 and 5
Text: as §1, §2

AKT-S473 = test: Phosphorylation of AKT-S473, a target of mTORC2 (Western blot); format: cell-based; conditions: PKN3-transfected cells, inhibitor 7 hours; FIGS. 4 and 5
Procedure: (§4) For protein extraction, cells were washed twice with cold phosphate-buffered saline (PBS) and lysed at 4° C. in lysis buffer containing 20 mM Tris (pH 7.5), 137 mM NaCl, 15% (vol/vol) glycerol, 1% (vol/vol) Nonidet P-40 (NP-40), 2 mM phenylmethylsulfonyl fluoride, […] of aprotinin per ml, […] leupeptin, 2 mM benzamidine, 1 mM sodium vanadate, 25 mM β-glycerolphosphate, 50 mM NaF, and 10 mM Na-pyrophosphate. Lysates were cleared by centrifugation at 14,000×g for 5 min, and aliquots of the lysates were analyzed for protein expression and enzyme activity (see below). Samples were separated by sodium dodecyl sulfate-polyacrylamide gel electrophoresis (SDS-PAGE) and transferred to nitrocellulose filters (Schleicher & Schuell). Filters were blocked in TBST buffer (10 mM Tris-HCl [pH 7.5], 150 mM NaCl, 0.05% [vol/vol] Tween 20, 0.5% [wt/vol] sodium azide) containing 5% (wt/vol) dried milk. The respective antibodies were added in TBST at appropriate dilutions. Bound antibody was detected with anti-mouse-, anti-goat, or anti-rabbit-conjugated alkaline phosphatase (Santa Cruz Biotechnology) in TBST, washed, and developed with nitroblue tetrazolium and 5-bromo-4-chloro-3-indolylphosphate (Promega). Alternatively, horseradish peroxidase-conjugated secondary antibodies were used and developed by enhanced chemiluminescence (Amersham).
(§5) PKN antibodies have been described in Leenders, 2004. […]

PKN2 = test: Phosphorylated PKN2 (Western blot); format: cell-based; conditions: PKN3-transfected cells, inhibitor 7 hours; FIGS. 4 and 5, panels C
Procedure: as §3

S6K-ST389 = test: Phosphorylation of S6K-ST389, a target of mTORC1 (Western blot); format: cell-based; conditions: PKN3-transfected cells, inhibitor 7 hours; FIGS. 4 and 5
Procedure: as §4, §5

PKN3 = molecular target: T1, PKN3 (Homo sapiens, UniProt Q6P5Z2); test: Kinase activity of PKN3 in transfected cells, phospho-GSKα read-out (Western blot); format: cell-based; conditions: cells transfected with WT PKN3; changing concentrations; FIG. 2
T1 construct: The full-length cDNA of human PKN3 (WT or wt) was amplified by PCR and cloned into a GST-fusion expression vector; GST; expressed in transfected cells; host or cells: HEK293T
Text: as §1, with “constructs. […] WT PKN3 is phosphorylated at the turn motif threonine (P*-PKN3^T860) and phosphorylates the GSKα substrate, whereas the KD version does neither (FIG. 1).” for “constructs.”
as §4
Various ATP-type kinase inhibitors were assessed for their ability to inhibit the kinase activity of both recombinant wildtype (WT) and kinase dead (KD) versions of PKN3.

kinase dead PKN3 = molecular target: T2, kinase dead PKN3 (Homo sapiens, UniProt Q6P5Z2, K588R); test: Priming of kinase dead PKN3 for turn motif threonine phosphorylation by ATP binding pocket competitive inhibitors (Western blot); format: cell-based; conditions: KD PKN3 (K588R) in transfected cells; changing concentrations; FIG. 3
T2 construct: The full-length cDNA of human PKN3 (WT or wt) was amplified by PCR and cloned into a GST-fusion expression vector; GST; expressed in transfected cells; host or cells: HEK293T
Text: as §1, with “constructs. […] WT PKN3 is phosphorylated at the turn motif threonine (P*-PKN3^T860) and phosphorylates the GSKα substrate, whereas the KD version does neither (FIG. 1).” for “constructs.”
as §4

[1] = tested on: HEK293T cells transfected with wild-type PKN3; test: PKN3-induced morphology changes in cells (photomicrographs); format: cell-based; conditions: FIG. 6, panel C
Text: FIG. 6 depicts photomicrographs of HEK293T cells transfected with wild-type (panels A, B and C) or kinase-dead (panels D, E and F) PKN3 constructs under control of a doxycycline responsive promoter, in the absence of doxycycline (panels A and D), in the presence of doxycycline (panels B and E) or in the presence of doxycycline and WAY-125132 (panels C and F).
The effects of WAY-125132 on PKN3-induced morphology changes in cells were examined.

T1 sequence (Q6P5Z2 whole entry, the tested form may be a part): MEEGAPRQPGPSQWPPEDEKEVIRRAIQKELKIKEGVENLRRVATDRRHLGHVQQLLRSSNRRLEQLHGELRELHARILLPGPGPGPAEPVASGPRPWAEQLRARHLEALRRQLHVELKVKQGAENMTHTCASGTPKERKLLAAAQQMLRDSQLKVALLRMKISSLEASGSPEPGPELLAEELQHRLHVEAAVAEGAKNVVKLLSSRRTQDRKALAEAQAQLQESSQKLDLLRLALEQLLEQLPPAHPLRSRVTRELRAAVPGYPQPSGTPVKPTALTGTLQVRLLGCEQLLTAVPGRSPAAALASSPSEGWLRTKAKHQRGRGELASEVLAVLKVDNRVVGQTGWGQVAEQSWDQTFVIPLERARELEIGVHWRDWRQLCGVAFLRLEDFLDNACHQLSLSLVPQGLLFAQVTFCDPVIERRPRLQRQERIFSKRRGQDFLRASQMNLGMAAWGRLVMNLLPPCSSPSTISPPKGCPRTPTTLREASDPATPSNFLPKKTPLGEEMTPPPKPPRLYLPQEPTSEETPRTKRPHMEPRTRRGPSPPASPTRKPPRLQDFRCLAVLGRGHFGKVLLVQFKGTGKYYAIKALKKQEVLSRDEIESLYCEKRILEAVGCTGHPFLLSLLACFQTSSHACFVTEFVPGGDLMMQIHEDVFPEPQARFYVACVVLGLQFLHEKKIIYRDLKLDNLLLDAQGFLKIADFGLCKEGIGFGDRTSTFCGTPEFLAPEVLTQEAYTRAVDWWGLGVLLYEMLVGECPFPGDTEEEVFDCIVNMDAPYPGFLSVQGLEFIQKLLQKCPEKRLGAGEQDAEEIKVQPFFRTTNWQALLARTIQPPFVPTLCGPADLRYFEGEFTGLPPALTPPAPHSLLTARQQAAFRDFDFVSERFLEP
T2 sequence (Q6P5Z2 whole entry K588R, the tested form may be a part): as the sequence (Q6P5Z2 whole entry, the tested form may be a part) above, with K588R counted along it

SMILES | inhibition of PKN3 T718 phosphorylation (PKN3-T718) | effect on PKN1 (PKN1) | inhibition of PKN3 T860 phosphorylation (PKN3-T860) | inhibition of phosphorylation of AKT-S473 (AKT-S473) | effect on PKN2 (PKN2) | inhibition of phosphorylation of S6K-ST389 (S6K-ST389) | inhibition of kinase activity of kinase active phosphorylated PKN3 (phospho-GSKα read-out) (PKN3) | priming of kinase dead PKN3 to become phosphorylated at the turn motif threonine (kinase dead PKN3) | effect on transformed phenotype of doxycycline treated cells transfected with WT PKN3 [1]
CO[C@H]1C[C@@H]2CC[C@@H](C)[C@@](O)(O2)C(=O)C(=O)N2CCCC[C@H]2C(=O)O[C@H]([C@H](C)C[C@@H]2CC[C@@H](OC(=O)C(C)(CO)CO)[C@H](OC)C2)CC(=O)[C@H](C)/C=C(\C)[C@@H](O)[C@@H](OC)C(=O)[C@H](C)C[C@H](C)/C=C/C=C/C=C/1C [CCI-779, (3S,6R,7E,9R,10R,12R,14S,15E,17E,19E,21S,23S,26R,27R,34aS)-9,10,12,13,14,21,22,23,24,25,26,27,32,33,34,34a-Hexadecahydro-9,27-dihydroxy-3-[(1R)-2-[(1S,3R,4R)-4-hydroxy-3-methoxycyclohexyl]-1-methylethyl]-10,21-dimethoxy-6,8,12,14,20,26-hexamethyl-23,27-epoxy-3H-pyrido[2,1-c][1,4]oxaazacyclohentriacontine-1,5,11,28,29(4H,6H,31H)-pentone 4′-[2,2-bis(hydroxymethyl)propionate]] | had no effect | had no effect | had no effect | had no effect | had no effect | inhibit S6K-ST389 | – | – | –
Oc1ccc(-c2nc(-c3ccncc3)c(-c3ccc(F)cc3)[nH]2)cc1 [SB202190] | – | – | – | – | – | – | inhibit the kinase activity of kinase active phosphorylated PKN3 in a concentration dependent manner | primed kinase dead PKN3 to become phosphorylated at the turn motif threonine in a concentration dependent manner | –
CCc1[nH]c(-c2ccc(OC)cc2)nc1-c1ccncc1 [SB202474] | – | – | – | – | – | – | not | not | –
Cl.Cl.N=C(N)NN=C(Cn1ccnc1)c1ccc(Cl)cc1Cl [WAY-125132, 2-[1-(2,4-Dichlorophenyl)-2-(1H-imidazol-1-yl)ethylidene]hydrazinecarboximidamide dihydrochloride] | not T718 phosphorylation | – | inhibit T860 phosphorylation in a dose dependent manner | inhibit the phosphorylation | – | inhibit the phosphorylation of S6K-ST389 | – | – | reversed this effect
C[C@@H](N)[C@H]1CC[C@H](C(=O)Nc2ccncc2)CC1 [Y27632] | – | – | – | – | – | – | inhibit the kinase activity of kinase active phosphorylated PKN3 in a concentration dependent manner | primed kinase dead PKN3 to become phosphorylated at the turn motif threonine in a concentration dependent manner | –

Reference: US20130065928A1, “BIOMARKERS FOR PI3K-DRIVEN CANCER” (WYETH LLC, priority 2010, published 2013)
